According to PubChem BioAssay AID200 (DTP/NCI, 2004):
Where “and” joins values, the source holds several entries; their conditions need not be identical. Identical values can stand only once. Inconclusive results and toxic doses are left out. Where a SMILES comes first, the peptide text is derived from it. [ ]: non-standard residue; d: D form. The star is where a group is joined. ξ: configuration not given here. Cbz = O=C(OCc1ccccc1)*; OBn = c1ccc(CO*)cc1; Bn = c1ccc(C*)cc1; ξC = NC(CS)C(=O)O

System: B6C3F1 mice, B16 melanoma ip, median survival T/C
Assay: NCI In Vivo Anticancer Drug Screen. Data for tumor model B16 Melanoma (intraperitoneal) in B6C3F1 mice
Details: endpoint: median survival time, higher = longer survival
Procedure: The antitumor activity of compounds was measured in mice bearing transplantable tumors. Survival or tumor size were measured and the results are expressed as the measurement made in the treated group (T) divided by the measurement made in the vehicle treated control group (C). The tumor model used in this assay is B16 Melanoma (intraperitoneal) in B6C3F1 mice

[1] = dose: 0.63 mg/kg/injection, schedule: Q01DX009 (ip), vehicle: saline with Tween-80
[2] = dose: 3.12 mg/kg/injection, schedule: Q01DX009 (ip), vehicle: saline with Tween-80
[3] = dose: 6.25 mg/kg/injection, schedule: Q01DX009 (ip), vehicle: saline with Tween-80
[4] = dose: 12.5 mg/kg/injection, schedule: Q01DX009 (ip), vehicle: saline with Tween-80
[5] = dose: 25.0 mg/kg/injection, schedule: Q01DX009 (ip), vehicle: saline with Tween-80
[6] = dose: 50.0 mg/kg/injection, schedule: Q01DX009 (ip), vehicle: saline with Tween-80
[7] = dose: 100.0 mg/kg/injection, schedule: Q01DX009 (ip), vehicle: saline with Tween-80
[8] = dose: 200.0 mg/kg/injection, schedule: Q01DX009 (ip), vehicle: saline with Tween-80
[9] = dose: 12.5 mg/kg/injection, schedule: Q01DX009 (ip), vehicle: Klucel (hydroxypropylcellulose) (HPC)
[10] = dose: 25.0 mg/kg/injection, schedule: Q01DX009 (ip), vehicle: Klucel (hydroxypropylcellulose) (HPC)
[11] = dose: 50.0 mg/kg/injection, schedule: Q01DX009 (ip), vehicle: Klucel (hydroxypropylcellulose) (HPC)
[12] = dose: 100.0 mg/kg/injection, schedule: Q01DX009 (ip), vehicle: Klucel (hydroxypropylcellulose) (HPC)
[13] = dose: 200.0 mg/kg/injection, schedule: Q01DX009 (ip), vehicle: Klucel (hydroxypropylcellulose) (HPC)
[14] = dose: 5.0 mg/kg/injection, schedule: Q01DX009 (ip), vehicle: saline with Tween-80
[15] = dose: 10.0 mg/kg/injection, schedule: Q01DX009 (ip), vehicle: saline with Tween-80
[16] = dose: 12.5 mg/kg/injection, schedule: Q01DX009 (ip), vehicle: saline
[17] = dose: 25.0 mg/kg/injection, schedule: Q01DX009 (ip), vehicle: saline
[18] = dose: 50.0 mg/kg/injection, schedule: Q01DX009 (ip), vehicle: saline
[19] = dose: 100.0 mg/kg/injection, schedule: Q01DX009 (ip), vehicle: saline
[20] = dose: 200.0 mg/kg/injection, schedule: Q01DX009 (ip), vehicle: saline

CC(C)([NH-])CO.CC(C)([NH-])CO.[Cl][Cd][Cl]
T/C (dose: 0.31 mg/kg/injection, schedule: Q01DX009 (ip), vehicle: saline with Tween-80): 90 % of control
T/C [1]: 89 % of control
T/C (dose: 1.25 mg/kg/injection, schedule: Q01DX009 (ip), vehicle: saline with Tween-80): 87 % of control

C[n+]1c(/C=C\C=C\N2CCCCC2)sc2ccccc21
T/C (dose: 0.12 mg/kg/injection, schedule: Q01DX009 (ip), vehicle: Klucel (hydroxypropylcellulose) (HPC)): 107 % of control
T/C (dose: 0.25 mg/kg/injection, schedule: Q01DX009 (ip), vehicle: Klucel (hydroxypropylcellulose) (HPC)): 95 % of control
T/C (dose: 0.5 mg/kg/injection, schedule: Q01DX009 (ip), vehicle: Klucel (hydroxypropylcellulose) (HPC)): 90 % of control
T/C (dose: 1.0 mg/kg/injection, schedule: Q01DX009 (ip), vehicle: Klucel (hydroxypropylcellulose) (HPC)): 95 % of control
T/C (dose: 2.0 mg/kg/injection, schedule: Q01DX009 (ip), vehicle: Klucel (hydroxypropylcellulose) (HPC)): 110 % of control

Cc1cc2c(c3oc(C4(C)OC4C4OC4C)cc(=O)c13)C(=O)c1c(O)c(C3CC(C)(N(C)C)C(O)C(C)O3)cc(C3CC(N(C)C)C(O)C(C)O3)c1C2=O (configuration not stated)
T/C (dose: 2.0 micrograms/kg/injection, schedule: Q01DX009 (ip), vehicle: Klucel (hydroxypropylcellulose) (HPC)): 123 % of control
T/C (dose: 4.0 micrograms/kg/injection, schedule: Q01DX009 (ip), vehicle: Klucel (hydroxypropylcellulose) (HPC)): 118 % of control

N=c1ccn2c(n1)OC1C(O)C(CO)OC12 (configuration not stated)
T/C (dose: 18.75 mg/kg/injection, schedule: Q01DX009 (ip), vehicle: saline): 100 % of control
T/C (dose: 37.5 mg/kg/injection, schedule: Q01DX009 (ip), vehicle: saline): 118 % of control and 104 % of control
T/C (dose: 75.0 mg/kg/injection, schedule: Q01DX009 (ip), vehicle: saline): 100 % of control and 106 % of control (2×)
T/C (dose: 150.0 mg/kg/injection, schedule: Q01DX009 (ip), vehicle: saline): 114 % of control and 106 % of control (2×)
T/C (dose: 300.0 mg/kg/injection, schedule: Q01DX009 (ip), vehicle: saline): 112 % of control and 121 % of control and 106 % of control

Nc1nc2c(ncn2C2OC(CO)C(O)C2N)c(=O)[nH]1 (configuration not stated)
T/C [2]: 97 % of control
T/C [3]: 90 % of control
T/C [4]: 107 % of control
T/C [5]: 112 % of control
T/C [6]: 97 % of control
T/C [7]: 107 % of control
T/C [8]: 104 % of control

CCCCCCCOc1ccc(C(=O)O)cc1
T/C [9]: 106 % of control
T/C [10]: 108 % of control
T/C [11]: 114 % of control

CCCCCCCCCCCCO[P+](=O)OCCCCCCCCCCCC
T/C [6]: 94 % of control
T/C [7]: 96 % of control

CN(CC(=O)O)C(=O)CNC(=O)CNC(=O)OCc1ccccc1 (HELM PEPTIDE1{[O=C(OCc1ccccc1)[*:2]].G.G.[Sar]}$$$$V2.0)
T/C [12]: 104 % of control
T/C [13]: 107 % of control
T/C (dose: 400.0 mg/kg/injection, schedule: Q01DX009 (ip), vehicle: Klucel (hydroxypropylcellulose) (HPC)): 98 % of control

O=C(CNC(=O)C(CSCc1ccccc1)NC(=O)OCc1ccccc1)NCC(=O)OCc1ccccc1 (stereo not drawn) (Cbz-[ξC](Bn)-Gly-Gly-OBn)
T/C [9]: 92 % of control
T/C [10]: 88 % of control

O=C(O)CNC(=O)C(CSCc1ccccc1)NC(=O)OCc1ccccc1 (configuration not stated)
T/C [11]: 95 % of control
T/C [6]: 95 % of control
T/C [12]: 107 % of control
T/C [7]: 88 % of control
T/C [13]: 102 % of control
T/C [8]: 90 % of control

CN1CCN(Cc2nc3cccc4c3c([n+]2[O-])-c2ccccc2-4)CC1
T/C [4]: 98 % of control
T/C [5]: 99 % of control
T/C [6]: 110 % of control
T/C [7]: 106 % of control
T/C [8]: 120 % of control

Cc1ccc([NH-])c([NH-])c1.[Cl][Pt+2][Cl]
T/C [1]: 114 % of control
T/C [14]: 157 % of control
T/C [15]: 160 % of control

COc1cc2c3c(cccc3c1)C(=O)N(CCN(C)C)C2=O
T/C [14]: 119 % of control and 95 % of control
T/C [15]: 115 % of control and 100 % of control
T/C (dose: 20.0 mg/kg/injection, schedule: Q01DX009 (ip), vehicle: saline with Tween-80): 110 % of control and 100 % of control and 105 % of control
T/C (dose: 40.0 mg/kg/injection, schedule: Q01DX009 (ip), vehicle: saline with Tween-80): 109 % of control and 121 % of control and 104 % of control
T/C (dose: 80.0 mg/kg/injection, schedule: Q01DX009 (ip), vehicle: saline with Tween-80): 107 % of control

COc1cc2cc3cc4cc(OC)c(OC)cc4c(C)[n+]3cc2cc1OC (tested in a mixture with another compound)
T/C [16]: 106 % of control
T/C [17]: 100 % of control
T/C [18]: 100 % of control
T/C [19]: 90 % of control

CCOC(=O)C1(c2ccccc2)C(=O)Oc2ccccc21 (configuration not stated)
T/C [4]: 99 % of control and 100 % of control
T/C [5]: 101 % of control and 102 % of control
T/C [6]: 95 % of control and 105 % of control
T/C [7]: 93 % of control and 95 % of control
T/C [8]: 93 % of control and 100 % of control
T/C (dose: 400.0 mg/kg/injection, schedule: Q01DX009 (ip), vehicle: saline with Tween-80): 91 % of control

OC1CC2CCCCC2CC1c1ccccc1 (configuration not stated)
T/C (dose: 25.0 mg/kg/injection, schedule: Q04DX003 (ip), vehicle: saline with Tween-80): 95 % of control
T/C (dose: 50.0 mg/kg/injection, schedule: Q04DX003 (ip), vehicle: saline with Tween-80): 114 % of control
T/C (dose: 100.0 mg/kg/injection, schedule: Q04DX003 (ip), vehicle: saline with Tween-80): 104 % of control
T/C (dose: 200.0 mg/kg/injection, schedule: Q04DX003 (ip), vehicle: saline with Tween-80): 93 % of control
T/C (dose: 400.0 mg/kg/injection, schedule: Q04DX003 (ip), vehicle: saline with Tween-80): 92 % of control

c1ccc(CN2COc3c(ccc4c3OCN(Cc3ccccc3)C4)C2)cc1
T/C [10]: 111 % of control
T/C [11]: 96 % of control
T/C [12]: 95 % of control

c1cc(-c2cc3ccc(C4=NCCN4)cc3[nH]2)ccc1C1=NCCN1
T/C (dose: 3.12 mg/kg/injection, schedule: Q01DX009 (ip), vehicle: saline): 111 % of control
T/C (dose: 3.12 mg/kg/injection, schedule: Q01DX009 (ip), vehicle: suspension in saline): 104 % of control
T/C (dose: 6.25 mg/kg/injection, schedule: Q01DX009 (ip), vehicle: saline): 108 % of control
T/C (dose: 6.25 mg/kg/injection, schedule: Q01DX009 (ip), vehicle: suspension in saline): 94 % of control
T/C [16]: 100 % of control
T/C (dose: 12.5 mg/kg/injection, schedule: Q01DX009 (ip), vehicle: suspension in saline): 96 % of control
T/C [17]: 95 % of control

Cc1ccc2c(c1)C1(C)OC(C=CC1=O)O2 (configuration not stated)
T/C (dose: 3.12 mg/kg/injection, schedule: Q01DX009 (ip), vehicle: Klucel (hydroxypropylcellulose) (HPC)): 104 % of control
T/C (dose: 6.25 mg/kg/injection, schedule: Q01DX009 (ip), vehicle: Klucel (hydroxypropylcellulose) (HPC)): 115 % of control
T/C [9]: 104 % of control
T/C [10]: 112 % of control and 105 % of control

CCCCCCCCSC1=C(Cl)C(=O)C(OC)=C(OC)C1=O
T/C (dose: 1.56 mg/kg/injection, schedule: Q01DX009 (ip), vehicle: saline with Tween-80): 100 % of control
T/C [2]: 93 % of control
T/C [3]: 89 % of control

CC(=O)NCCCCCCNC(C)=O
T/C [17]: 108 % of control
T/C [18]: 97 % of control
T/C [19]: 106 % of control
T/C [20]: 106 % of control
T/C (dose: 800.0 mg/kg/injection, schedule: Q01DX009 (ip), vehicle: saline): 179 % of control

CN1C2CCC1C(Br)C(=O)C2 (configuration not stated)
T/C [17]: 105 % of control
T/C [18]: 95 % of control
T/C [19]: 93 % of control
T/C [20]: 93 % of control
